From PubChem BioAssay AID328 (DTP/NCI, 2004)
Several values for one entry are separate records, joined by “and”; a condition that tells them apart may be missing. Equal values may be shown once. Toxic doses and inconclusive results are not listed.

System: BDF1 mice, P388 leukemia ip, median survival T/C
Assay: NCI In Vivo Anticancer Drug Screen. Data for tumor model P388 Leukemia (intraperitoneal) in B6D2F1 (BDF1) mice
Conditions: endpoint: median survival time, higher = longer survival
In short: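 Read-out is survival of treated animals expressed relative to the vehicle group, as a T/C ratio.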

[1] = dose: 100.0 mg/kg/injection, schedule: Q04DX003 (ip), vehicle: saline with Tween-80
[2] = dose: 200.0 mg/kg/injection, schedule: Q04DX003 (ip), vehicle: saline with Tween-80
[3] = dose: 400.0 mg/kg/injection, schedule: Q04DX003 (ip), vehicle: saline with Tween-80
[4] = dose: 25.0 mg/kg/injection, schedule: Q01DX009 (ip), vehicle: saline with Tween-80
[5] = dose: 50.0 mg/kg/injection, schedule: Q01DX009 (ip), vehicle: saline with Tween-80
[6] = dose: 100.0 mg/kg/injection, schedule: Q04DX003 (ip), vehicle: Klucel (hydroxypropylcellulose) (HPC)
[7] = dose: 200.0 mg/kg/injection, schedule: Q04DX003 (ip), vehicle: Klucel (hydroxypropylcellulose) (HPC)
[8] = dose: 400.0 mg/kg/injection, schedule: Q04DX003 (ip), vehicle: Klucel (hydroxypropylcellulose) (HPC)
[9] = dose: 100.0 mg/kg/injection, schedule: Q01DX009 (ip), vehicle: saline with Tween-80
[10] = dose: 12.5 mg/kg/injection, schedule: Q01DX009 (ip), vehicle: saline
[11] = dose: 25.0 mg/kg/injection, schedule: Q04DX003 (ip), vehicle: saline
[12] = dose: 100.0 mg/kg/injection, schedule: Q01DX009 (ip), vehicle: Klucel (hydroxypropylcellulose) (HPC)

## CCCCCCCCCCN1CCOCCOCCN(CCCCCCCCCC)CCOCCOCC1
dose: 1.56 mg/kg/injection, schedule: Q01DX005 (ip), vehicle: saline with Tween-80
  T/C: 113 % of control
dose: 3.13 mg/kg/injection, schedule: Q01DX005 (ip), vehicle: saline with Tween-80
  T/C: 103 % of control
dose: 6.25 mg/kg/injection, schedule: Q01DX005 (ip), vehicle: saline with Tween-80
  T/C: 113 % of control

## CCN(CC)c1ccc(NC(=O)Nc2ccccc2OC)cc1
[1]
  T/C: 95 % of control
[2]
  T/C: 100 % of control
[3]
  T/C: 100 % of control

## CCOC(=O)CC1NCCC2C1CCC(OC)C2OC (configuration not stated)
dose: 12.5 mg/kg/injection, schedule: Q01DX009 (ip), vehicle: saline with Tween-80
  T/C: 95 % of control
[4]
  T/C: 100 % of control
[5]
  T/C: 100 % of control
dose: 50.0 mg/kg/injection, schedule: Q04DX003 (ip), vehicle: other
  T/C: 110 % of control
dose: 100.0 mg/kg/injection, schedule: Q01DX009 (ip), vehicle: other
  T/C: 105 % of control
dose: 100.0 mg/kg/injection, schedule: Q04DX003 (ip), vehicle: other
  T/C: 100 % of control
dose: 200.0 mg/kg/injection, schedule: Q01DX009 (ip), vehicle: other
  T/C: 110 % of control
dose: 200.0 mg/kg/injection, schedule: Q04DX003 (ip), vehicle: other
  T/C: 100 % of control

## O=S(=O)(Nc1ccc(NS(=O)(=O)c2ccccc2)nc1)c1ccccc1
[6]
  T/C: 100 % of control
[7]
  T/C: 104 % of control
[8]
  T/C: 100 % of control

## Cc1c2oc3c(C)ccc(C(=O)NCc4cccnc4)c3nc-2c(C(=O)NCc2cccnc2)c(N)c1=O
[1]
  T/C: 96 % of control
[2]
  T/C: 96 % of control
[3]
  T/C: 100 % of control

## O=C(NC(=O)c1c(F)cccc1F)Nc1ccc([N+](=O)[O-])cn1
[4]
  T/C: 96 % of control
[5]
  T/C: 90 % of control
[9]
  T/C: 90 % of control

## N#CC1(C#N)C(c2ccccc2)C1(C#N)C#N
dose: 2.0 mg/kg/injection, schedule: Q01DX009 (ip), vehicle: saline with Tween-80
  T/C: 120 % of control
dose: 2.66 mg/kg/injection, schedule: Q01DX009 (ip), vehicle: saline with Tween-80
  T/C: 122 % of control
dose: 2.66 mg/kg/injection, schedule: Q01DX009 (ip), vehicle: saline
  T/C: 109 % of control and 120 % of control
dose: 4.0 mg/kg/injection, schedule: Q01DX009 (ip), vehicle: saline
  T/C: 108 % of control
dose: 6.0 mg/kg/injection, schedule: Q01DX009 (ip), vehicle: saline
  T/C: 118 % of control
dose: 6.25 mg/kg/injection, schedule: Q01DX009 (ip), vehicle: saline with Tween-80
  T/C: 115 % of control
dose: 8.0 mg/kg/injection, schedule: Q01DX009 (ip), vehicle: saline with Tween-80
  T/C: 120 % of control

## CCOc1ccn(CC(=O)N2CCOCC2)c(=O)n1
dose: 100.0 mg/kg/injection, schedule: Q01DX009 (ip), vehicle: water
  T/C: 103 % of control
dose: 200.0 mg/kg/injection, schedule: Q01DX009 (ip), vehicle: water
  T/C: 105 % of control
dose: 400.0 mg/kg/injection, schedule: Q01DX009 (ip), vehicle: water
  T/C: 97 % of control

## CCN(CC)CC1CO1 (configuration not stated)
[10]
  T/C: 100 % of control

## Cc1ccc(NC(=O)c2ccc(C)c([N+](=O)[O-])c2)c(C)c1
dose: 100.0 mg/kg/injection, schedule: Q01DX008 (sc), vehicle: olive oil, sesame oil, peanut oil
  T/C: 87 % of control
dose: 100.0 mg/kg/injection, schedule: Q04DX003 (sc), vehicle: olive oil, sesame oil, peanut oil
  T/C: 88 % of control
dose: 200.0 mg/kg/injection, schedule: Q01DX008 (sc), vehicle: olive oil, sesame oil, peanut oil
  T/C: 100 % of control
dose: 200.0 mg/kg/injection, schedule: Q04DX003 (sc), vehicle: olive oil, sesame oil, peanut oil
  T/C: 88 % of control
dose: 400.0 mg/kg/injection, schedule: Q01DX008 (sc), vehicle: olive oil, sesame oil, peanut oil
  T/C: 87 % of control
dose: 400.0 mg/kg/injection, schedule: Q04DX003 (sc), vehicle: olive oil, sesame oil, peanut oil
  T/C: 92 % of control

## Cc1c2oc3c(C)c([N+](=O)[O-])cc(C(=O)NC4C(=O)NC(C(C)C)C(=O)N5CCCC5C(=O)N(C)CC(=O)N(C)C(C(C)C)C(=O)OC4C)c3nc-2c(C(=O)NC2C(=O)NC(C(C)C)C(=O)N3CCCC3C(=O)N(C)CC(=O)N(C)C(C(C)C)C(=O)OC2C)c(N)c1=O (configuration not stated)
dose: 150.0 micrograms/kg/injection, schedule: Q01DX009 (ip), vehicle: saline + alcohol
  T/C: 153 % of control
dose: 450.0 micrograms/kg/injection, schedule: Q04DX003 (ip), vehicle: saline + alcohol
  T/C: 110 % of control
dose: 600.0 micrograms/kg/injection, schedule: Q04DX003 (ip), vehicle: saline + alcohol
  T/C: 108 % of control

## O=C(c1cccs1)c1cccs1
[5]
  T/C: 101 % of control
[9]
  T/C: 108 % of control
[1]
  T/C: 102 % of control
dose: 200.0 mg/kg/injection, schedule: Q01DX009 (ip), vehicle: saline with Tween-80
  T/C: 92 % of control
[2]
  T/C: 90 % of control
dose: 400.0 mg/kg/injection, schedule: Q01DX009 (ip), vehicle: saline with Tween-80
  T/C: 99 % of control
[3]
  T/C: 112 % of control

## CC1(CO)C(O)CCC2(C)C1CCC1CC3CC12CCC3(O)CO (configuration not stated)
dose: 75.0 mg/kg/injection, schedule: Q01DX009 (ip), vehicle: saline with Tween-80
  T/C: 155 % of control
dose: 150.0 mg/kg/injection, schedule: Q01DX009 (ip), vehicle: saline with Tween-80
  T/C: 155 % of control

## O=[N+]([O-])c1ccc(/C=C/c2ncc[nH]2)o1
dose: 50.0 mg/kg/injection, schedule: Q04DX003 (ip), vehicle: Klucel (hydroxypropylcellulose) (HPC)
  T/C: 100 % of control
[6]
  T/C: 100 % of control
[7]
  T/C: 100 % of control

## CN1C=c2c3c(ccc2=C2C=CC4C=C5OCOC5=CC4=C21)OCO3 (configuration not stated)
dose: 5.0 mg/kg/injection, schedule: Q01DX010 (ip), vehicle: saline
  T/C: 110 % of control
dose: 6.25 mg/kg/injection, schedule: Q04DX003 (ip), vehicle: saline
  T/C: 100 % of control
dose: 10.0 mg/kg/injection, schedule: Q01DX010 (ip), vehicle: saline
  T/C: 100 % of control
dose: 12.5 mg/kg/injection, schedule: Q04DX003 (ip), vehicle: saline
  T/C: 100 % of control
dose: 20.0 mg/kg/injection, schedule: Q01DX010 (ip), vehicle: saline
  T/C: 105 % of control
[11]
  T/C: 109 % of control

## CCCN(CCC)c1ccc(/C=C/c2ccc3cc(OCC)ccc3n2)cc1
[12]
  T/C: 100 % of control
[6]
  T/C: 104 % of control
dose: 200.0 mg/kg/injection, schedule: Q01DX009 (ip), vehicle: Klucel (hydroxypropylcellulose) (HPC)
  T/C: 100 % of control
[7]
  T/C: 104 % of control
dose: 400.0 mg/kg/injection, schedule: Q01DX009 (ip), vehicle: Klucel (hydroxypropylcellulose) (HPC)
  T/C: 90 % of control
[8]
  T/C: 109 % of control

## COc1ccc(OC)c(/C=C/[N+](=O)[O-])c1
dose: 12.5 mg/kg/injection, schedule: Q01DX009 (ip), vehicle: Klucel (hydroxypropylcellulose) (HPC)
  T/C: 108 % of control
dose: 25.0 mg/kg/injection, schedule: Q01DX009 (ip), vehicle: Klucel (hydroxypropylcellulose) (HPC)
  T/C: 113 % of control and 120 % of control
dose: 50.0 mg/kg/injection, schedule: Q01DX009 (ip), vehicle: Klucel (hydroxypropylcellulose) (HPC)
  T/C: 113 % of control
[12]
  T/C: 116 % of control

## CC(=O)c1c(C)oc(C)c1C(C)=O
[1]
  T/C: 103 % of control
[2]
  T/C: 111 % of control
[3]
  T/C: 96 % of control

## CCCCC(O)C1=CC(=O)C2CC(C)=C(C)CC2C1=O (configuration not stated)
[1]
  T/C: 92 % of control
[2]
  T/C: 102 % of control
[3]
  T/C: 100 % of control

## CC(=O)C(C(C)=O)c1ccccc1.CC(=O)C(C(C)=O)c1ccccc1.[Ni]
dose: 3.0 mg/kg/injection, schedule: Q01DX009 (ip), vehicle: Klucel (hydroxypropylcellulose) (HPC)
  T/C: 110 % of control
dose: 6.0 mg/kg/injection, schedule: Q01DX009 (ip), vehicle: Klucel (hydroxypropylcellulose) (HPC)
  T/C: 100 % of control
dose: 6.0 mg/kg/injection, schedule: Q04DX003 (ip), vehicle: other
  T/C: 100 % of control
dose: 12.0 mg/kg/injection, schedule: Q01DX009 (ip), vehicle: Klucel (hydroxypropylcellulose) (HPC)
  T/C: 100 % of control
dose: 12.0 mg/kg/injection, schedule: Q04DX003 (ip), vehicle: other
  T/C: 95 % of control
dose: 25.0 mg/kg/injection, schedule: Q04DX003 (ip), vehicle: other
  T/C: 100 % of control

## COc1cc2c(cc1OC)C(CCN1C(=O)c3ccccc3C1=O)=NCC2
[10]
  T/C: 91 % of control
dose: 25.0 mg/kg/injection, schedule: Q01DX009 (ip), vehicle: saline
  T/C: 87 % of control
[11]
  T/C: 100 % of control
dose: 50.0 mg/kg/injection, schedule: Q04DX003 (ip), vehicle: saline
  T/C: 95 % of control
